Reference: US20110091387A1, “METHODS AND COMPOSITIONS FOR REDUCING SKIN DAMAGE” (THE GENERAL HOSPITAL CORPORATION, priority 2007, published 2011)
Where a name gives a salt, the structure may show the parent alone.

Tested on: RhoE promoter
Test: RhoE promoter luc2 luciferase reporter screen for inducers of RhoE expression
Type: cell-based
Conditions: luminescence at 24 hours; for Composite Z value (induction of RhoE expression): Table 1, two replicates per compound; for Composite Z: Table 2, two replicates
Description: To isolate compounds that can activate RhoE pathway in keratinocytes and protect against UVB exposure, a robust and sensitive chemical genetics approach was developed for the identification of small molecules that induce RhoE expression. Briefly, a reporter construct was created that included the RhoE promoter operatively linked to the luc2 luciferase reporter gene (FIG. 1A). Stable cell lines were produced that expressed the reporter construct, and the cells were plated in 384 well plates at ˜10,000 cells per well. The library test compounds were added to the plated cells at two replicates per compound, and the cells were incubated with the compounds for 24 hours. Luminescence was measured at 24 hours using a plate reader. The data were analyzed using Spotfire.

SMILES | Composite Z value (induction of RhoE expression) | other results
COc1ccc(CC(=O)c2ccc(O)cc2O)cc1 [Ononetin] | 2.6414 | –
CCCSc1ccc2nc(NC(=O)OC)[nH]c2c1 [Albendazole, reference compound] | 3.0534 | –
COC(=O)C(C)c1ccc(C(=O)c2cccs2)cc1 (stereo not shown) [suprofen methyl ester] | 3.2205 | –
COc1ccc(-c2cc(=O)c3ccccc3o2)cc1OC [3′,4′-dimethoxyflavone] | 2.21 | –
COc1ccc2c(=O)c(-c3cc4c(cc3OC)OCO4)coc2c1 [cuneatin methyl ether] | 2.23 | –
COc1cc(O)c(C(=O)/C=C/c2ccccc2)c(OC)c1 [flavokawain b] | 3.604 | –
CCCOc1ccc2nc(NC(=O)OC)[nH]c2c1 [Oxibendazole, reference compound] | 2.2003 | –
COc1cc(O)c2c(=O)c(O)c(-c3ccc(O)c(O)c3)oc2c1 [Rhamnetin] | 2.1577 | –
O=c1cc(-c2ccc(O)c(O)c2)oc2cc(O)cc(O)c12 [Luteolin] | 2.3069 | –
O=C(CC(=O)c1ccccc1)c1ccccc1 [Dibenzoylmethane] | 3.651 | –
C[C@]12CC[C@H]3C(=CCc4cc(O)ccc43)[C@@H]1CCC2=O [Equilin, reference compound] | 2.3429 | –
O=c1cc(-c2ccccc2)oc2cc(O)cc(O)c12 [Chrysin] | – | Composite Z: 5.4731
COc1ccc(-c2cc(=O)c3c(OC(C)=O)cc(OC(C)=O)cc3o2)cc1 [acacetin diacetate] | 3.977 | –
C=C1C(=O)O[C@@H]2C[C@@]3(C)CCC[C@H](C)C3=C[C@H]12 [Helenine] | 2.473 | –
O=c1c2ccccc2[se]n1-c1ccccc1 [Ebselen] | 2.3104 | –
O=c1cc(-c2ccc(O)cc2)oc2cc(O[C@@H]3O[C@H](CO)[C@@H](O)[C@H](O)[C@H]3O)cc(O)c12 [Cosmosiin] | 4.8646 | –
C=C(C)c1cc2cc(C(C)=O)c(O)cc2o1 [Euparin] | 2.4662 | –
CCN(CC)CCOc1ccc2c(c1)C(=O)c1cc(OCCN(CC)CC)ccc1-2 [Tilorone, reference compound] | 3.4862 | –
COc1ccc(C(=O)/C=C/c2ccccc2)cc1 [4′-methoxychalcone] | 3.8036 | –
COc1ccc(C2CC(=O)c3ccc(OC)cc3O2)cc1 (stereo not shown) [liquiritigenin dimethyl ether] | 4.6362 | –
CCN(CC)CCCC(C)Nc1c2ccc(Cl)cc2nc2ccc(OC)cc12 (stereo not shown) [Quinacrine dihydrochloride dihydrate, reference compound] | 2.324 | –
COc1ccccc1-c1cc(=O)c2cccc(OC)c2o1 [8,2′-dimethoxyflavone] | 2.7326 | –
O=C(Nc1ccccc1)Nc1ccccc1 [Diphenylurea] | 3.1382 | –
COc1cc(-c2coc3cc(O[C@@H]4O[C@H](CO)[C@@H](O)[C@H](O)[C@H]4O)c(OC)c(O)c3c2=O)cc(O)c1OC [Iridin] | 2.7194 | –
CC(C)OC(=O)Nc1cccc(Cl)c1 [Chlorpropham] | 2.5656 | –
COc1ccc(-c2cc(=O)c3c(OC)cc(OC)cc3o2)cc1 [5,7,4′-trimethoxyflavone] | 5.4102 | Composite Z: 5.4102
O=C1c2ccccc2-c2cccc3cccc1c23 [Benzanthrone] | 2.735 | –

SMILES | Composite Z value (induction of RhoE expression) | other results
COc1cc(OC)c2c(=O)c(-c3ccc4c(c3)OCO4)coc2c1 [Derrustone] | 2.3814 | –
O=c1c2ccccc2oc2ccccc12 [Xanthone] | 3.79 | –
O=c1cc(-c2cc(O)c(O)c(O)c2)oc2cc(O)cc(O)c12 [Hieracin] | 3.8448 | –
c1ccc2[nH]c(-c3cscn3)nc2c1 [Tiabendazole, reference compound] | 3.5924 | –
CCCCOC(=O)c1ccc(O)cc1 [Butylparaben] | 2.6043 | –
CC(C)C[C@H](NC(=O)OCC1c2ccccc2-c2ccccc21)C(=O)O [n-(9-fluorenylmethoxycarbonyl)-1-leucine] | 2.8734 | –
COc1ccc2c(c1)OCC(=Cc1ccc(O)c(O)c1)C2=O [sappanone a 7-methyl ether] | 2.4579 | –
Oc1ccc2c(c1)OC[C@H]1c3cc4c(cc3O[C@@H]21)OCO4 [Maackiain] | 2.2116 | –
CC(=O)Oc1ccc(-c2cc(=O)c3c(OC(C)=O)cc(OC(C)=O)cc3o2)cc1 [apigenin triacetate] | 4.6992 | –
CC(C)N(C(=O)CCl)c1ccccc1 [Propachlor] | 2.8556 | –
COc1ccc(-c2cc(=O)c3c(O)cc(O)cc3o2)cc1O [Diosmetin] | 4.5672 | –
O=c1c(-c2ccc(O)cc2)coc2cc(O)cc(O)c12 [Genistein] | 2.5938 | –
COc1ccc(-c2cc(=O)c3c(O)cc(O)cc3o2)cc1 [Acacetin] | 3.2375 | –
CC[C@H]1OC(=O)[C@H](C)[C@@H](O[C@H]2C[C@@](C)(OC)[C@@H](O)[C@H](C)O2)[C@H](C)[C@@H](O[C@@H]2O[C@H](C)C[C@H](N(C)C)[C@H]2O)[C@](C)(O)C[C@@H](C)C(=O)[C@H](C)[C@@H](O)[C@]1(C)O [erythromycin stearate, reference compound] | 3.1488 | –
Cl.NNCc1ccccc1 [benzylhydrazine hydrochloride] | 2.3759 | –
COc1ccc(-c2coc3cc(OC(C)=O)cc(OC(C)=O)c3c2=O)cc1 [biochanin a diacetate] | 3.6564 | –
COc1ccccc1-c1cc(=O)c2c(OC)cccc2o1 [5,2′-dimethoxyflavone] | 3.0257 | –
O=C1C[C@@H](c2ccc(O)cc2)Oc2cc(O)cc(O)c21 [Naringenin] | 2.3231 | –
COC(=O)Nc1nc2ccc(SC(C)C)cc2[nH]1 [Methiazole] | 2.2516 | –
O=c1cc(-c2ccc(O)cc2)oc2cc(O)cc(O)c12 [Apigenin] | – | Composite Z: 5.3515; Composite Z (listed as apigenin): 5.8729
COc1ccc2oc3ccccc3c(=O)c2c1 [2-methoxyxanthone] | 3.8383 | –
O=C(/C=C/c1ccccc1)c1ccc(O)cc1 [4′-hydroxychalcone] | 2.8467 | –
COc1ccc(-c2coc3cc(OC)ccc3c2=O)cc1 [7,4′-dimethoxyisoflavone] | 3.0721 | –
O=c1c2ccccc2oc2ccc(O)cc12 [2-hydroxyxanthone] | 2.2158 | –
NNc1nncc2ccccc12 [hydralazine hydrochloride, reference compound] | 2.3583 | –
COc1ccc(-c2coc3cc(O)cc(O)c3c2=O)cc1 [biochanin a] | 3.2901 | –
